14 compounds from patent publication US20240158370A1, “CK1 alpha AND DUAL CK1 alpha / GSPT1 DEGRADING COMPOUNDS” (Innovo Therapeutics, Inc., priority 2022, published 2024) can be followed below.

Assay type in all cases: cell-based
The target of one test is GSPT1 (Homo sapiens, UniProt P15170+Q96SW2). In words: HiBiT degradation assay, GSPT1, Procedure A. Also on record: HiBit-GSPT1 KI HEK293(LgBit) Cells; host or cells: HEK293(LgBit) knock-in cells. The method in brief: (§1)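 Six-hour treatment at 37° C, ten doses between 10 μM and 0.005 μM, then HiBiT lytic luminescence. Fitted DC50 and Ymin.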
Sequence of GSPT1 (P15170 whole entry): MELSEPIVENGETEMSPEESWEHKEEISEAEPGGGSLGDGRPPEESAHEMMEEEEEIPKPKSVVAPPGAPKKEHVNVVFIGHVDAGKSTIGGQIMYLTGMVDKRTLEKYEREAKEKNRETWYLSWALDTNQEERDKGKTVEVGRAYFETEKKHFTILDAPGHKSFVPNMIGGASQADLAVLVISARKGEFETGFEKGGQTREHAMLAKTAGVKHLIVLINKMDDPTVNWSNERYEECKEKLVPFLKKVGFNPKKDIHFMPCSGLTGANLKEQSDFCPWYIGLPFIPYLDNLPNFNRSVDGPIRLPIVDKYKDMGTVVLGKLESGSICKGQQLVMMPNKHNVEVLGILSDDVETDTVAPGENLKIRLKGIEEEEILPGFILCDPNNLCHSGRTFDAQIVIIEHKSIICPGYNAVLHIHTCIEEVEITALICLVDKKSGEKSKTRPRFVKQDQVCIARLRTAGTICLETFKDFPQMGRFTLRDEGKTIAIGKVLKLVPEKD
Sequence of GSPT1 (Q96SW2 whole entry): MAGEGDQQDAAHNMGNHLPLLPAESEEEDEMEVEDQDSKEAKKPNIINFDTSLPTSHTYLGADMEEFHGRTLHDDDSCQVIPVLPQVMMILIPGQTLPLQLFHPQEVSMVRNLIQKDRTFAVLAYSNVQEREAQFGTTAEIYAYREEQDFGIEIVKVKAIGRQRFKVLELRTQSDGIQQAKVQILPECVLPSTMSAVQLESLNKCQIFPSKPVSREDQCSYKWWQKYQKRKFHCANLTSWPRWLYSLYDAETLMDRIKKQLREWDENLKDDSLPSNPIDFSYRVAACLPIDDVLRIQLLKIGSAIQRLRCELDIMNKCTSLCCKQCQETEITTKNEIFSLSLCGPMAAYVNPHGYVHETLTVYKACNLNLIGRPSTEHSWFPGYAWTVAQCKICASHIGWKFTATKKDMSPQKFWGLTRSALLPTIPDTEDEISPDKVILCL
Sequence of GSPT1 (Q16531 whole entry partner): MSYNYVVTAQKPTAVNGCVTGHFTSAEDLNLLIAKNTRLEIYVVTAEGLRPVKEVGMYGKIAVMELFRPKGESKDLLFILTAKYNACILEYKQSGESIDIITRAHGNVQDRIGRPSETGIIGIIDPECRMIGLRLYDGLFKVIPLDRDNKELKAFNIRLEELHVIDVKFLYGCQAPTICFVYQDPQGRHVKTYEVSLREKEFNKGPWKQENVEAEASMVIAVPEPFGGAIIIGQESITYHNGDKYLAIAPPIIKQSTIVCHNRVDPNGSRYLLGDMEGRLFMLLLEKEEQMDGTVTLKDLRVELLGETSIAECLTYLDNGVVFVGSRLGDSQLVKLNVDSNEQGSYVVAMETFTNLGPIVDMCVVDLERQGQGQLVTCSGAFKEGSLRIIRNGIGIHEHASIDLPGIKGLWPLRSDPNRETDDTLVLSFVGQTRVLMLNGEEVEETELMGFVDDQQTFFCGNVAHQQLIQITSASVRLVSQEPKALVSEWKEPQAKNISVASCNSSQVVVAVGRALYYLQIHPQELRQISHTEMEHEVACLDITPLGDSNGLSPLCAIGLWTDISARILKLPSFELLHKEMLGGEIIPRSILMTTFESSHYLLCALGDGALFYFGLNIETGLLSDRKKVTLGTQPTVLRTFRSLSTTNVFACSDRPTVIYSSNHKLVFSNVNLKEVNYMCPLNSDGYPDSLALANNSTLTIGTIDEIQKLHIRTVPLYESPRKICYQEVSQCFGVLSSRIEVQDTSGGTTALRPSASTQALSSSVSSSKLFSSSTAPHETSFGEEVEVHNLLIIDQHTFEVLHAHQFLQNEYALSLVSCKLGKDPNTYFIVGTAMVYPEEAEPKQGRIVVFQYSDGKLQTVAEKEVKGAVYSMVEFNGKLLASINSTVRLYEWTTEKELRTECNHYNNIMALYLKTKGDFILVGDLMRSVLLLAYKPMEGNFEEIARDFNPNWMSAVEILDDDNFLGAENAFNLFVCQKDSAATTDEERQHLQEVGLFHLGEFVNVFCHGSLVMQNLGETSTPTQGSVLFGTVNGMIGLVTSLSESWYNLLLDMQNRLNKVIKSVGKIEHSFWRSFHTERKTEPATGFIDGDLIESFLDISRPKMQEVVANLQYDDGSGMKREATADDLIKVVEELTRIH
In general terms: With HiBiT, luminescence reflects the tagged protein that the partner subunit can reach.

The target in a further test is T1, CK1α (Homo sapiens, UniProt P48729+Q96SW2).
T1 construct: CSNK1A1-HiBit KI HEK293(LgBit) Cells; host or cells: HEK293(LgBit) knock-in cells
T1 sequence (P48729 whole entry): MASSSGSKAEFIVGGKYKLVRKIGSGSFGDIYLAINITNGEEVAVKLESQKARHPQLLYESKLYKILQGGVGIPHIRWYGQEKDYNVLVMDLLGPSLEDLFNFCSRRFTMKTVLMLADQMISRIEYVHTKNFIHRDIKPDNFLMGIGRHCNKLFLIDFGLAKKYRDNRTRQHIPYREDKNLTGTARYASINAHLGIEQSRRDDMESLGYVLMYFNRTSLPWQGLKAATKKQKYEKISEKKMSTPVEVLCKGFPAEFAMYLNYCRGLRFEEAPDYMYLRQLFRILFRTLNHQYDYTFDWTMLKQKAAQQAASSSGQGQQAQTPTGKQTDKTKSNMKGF
T1 sequence (Q96SW2 whole entry): as the sequence (Q96SW2 whole entry) above
T1 sequence (Q16531 whole entry partner): as the sequence (Q16531 whole entry partner) above
In words: HiBiT degradation assay, CK1α, Procedure A. The method in brief:
as §1

Another test has as its system Z-138 cells. The test is described as follows: Z-138 Proliferation Assay (Cell Titer-Glo). To be noted: 72 hours; for Ymin (%): % remaining (percent of DMSO control); for EC50: Homo sapiens, Cell Titer-Glo, 4-parameter curve fit. As to the method: Z-138 Proliferation Assay
Z-138 cells were cultured in IMDM Medium supplemented with 10% heat in-activated fetal bovine serum and 1% Penicillin-Streptomycin.
10 mM stocks of compound were made from fresh powder. DMSO was added to solid compound so that the final concentration was 10 mM. Compounds were vortexed and allowed to sit for 5 minutes to ensure complete solubility. Solvated compound was aliquoted into 1 ml Eppendorf tubes and stored in a −20° C. freezer.
Z-138 cells were maintained in culture using standard cell culturing techniques.
Cells were maintained at a density of 0.8×10^6 cells/ml.
Re-constitute cell titer-glo reagent according to manufacturer's protocol.
Z-138 cells were removed from culture and cell viability and density were determined using a CellDrop™ Automated Cell Counter with Tryphan blue stain according to manufacturer's protocols. Cells were centrifuged and resuspended using fresh media to a cell density of 0.1×10^6 cells/ml. […] 40 μl of cell suspension was added to the wells of a 384 well tissue culture plate (4,000 cells/well final). Upon completing the addition of the cells to the plate, the plates were centrifuged for 30 seconds at 300 rpms to help the cells settle and to bring air bubbles to the top of the wells. Air bubbles were popped using a pipette tip.
10-point dose response curves were performed using a D300e Digital Dispenser. The highest concentration of compound used in the assay was 10,000 nM. 1:2 dilutions were performed over a 10-point range with the final DMSO concentration being 0.1%. The cells were cultured for 72 hours in the presence of compound.
After 72 hours, the cell plates were removed from the incubator and allowed to equilibrate to room temperature (about 15 minutes). 20 μl of cell titer-glo reagent was added to each well of the 384 well plate. Incubated the plate for 30 minutes in the dark. After 30 minutes, ensured that there were no air bubbles in the plate (popped bubbles with pipette tip if necessary) and analyzed plate using a luminometer.
EC50 curves were generated using Prism Graph Pad. In brief, POCs (percent of control, compound/DMSO control×100) were plotted against the compound concentrations (log scale). EC50 curves were generated using a 4-parameter curve fit.
A general note: In ATP-based viability assays light output follows the ATP content of the culture.

SMILES strings stand for the structures.

Usually DC50 stands for the midpoint of the concentration-degradation curve. Read a high DC50 as a less potent degrader. Usually EC50 stands for the midpoint of the concentration-response curve. The low end stands for greater potency, the high end for weaker potency. Turning to `O=C1CCC(N2Cc3cc(-c4nccn4-c4ccccc4)ccc3C2=O)C(=O)N1` (stereo not drawn) [Example 7, 3-(1-Oxo-5-(1-phenyl-1H-imidazol-2-yl)isoindolin-2-yl)piperidine-2,6-dione], at GSPT1 (six hours incubation), the DC50 is below 25 nM and the “GSPT1 Ymin” value is “E (E = >25-75% remaining)”. For the same compound, at CK1α (six hours incubation), the “CK1α Ymin” value was “C (C = 0-10% remaining)” and the DC50 was below 25 nM. Moreover, in the test on Z-138 cells, the “Ymin (%)” value was “D (0-10% remaining)” and the EC50 was below 10 nM.
For the compound `O=C1CCC(N2Cc3cc(-c4cn(C(F)F)c(-c5ccccc5)n4)ccc3C2=O)C(=O)N1` (stereo not drawn) [Example 421, 3-(5-(1-(difluoromethyl)-2-phenyl-1H-imidazol-4-yl)-1-oxoisoindolin-2-yl)piperidine-2,6-dione], at GSPT1 (six hours), the DC50 is at least 25 nM and the “GSPT1 Ymin” value was “F (F = >75-100% remaining)”. For the same compound, on CK1α (six hours), the “CK1α Ymin” value is reported as “C (C = 0-10% remaining)” and the 50% degradation concentration (DC50) was below 25 nM. Besides, in the test with Z-138 cells, the “Ymin (%)” value is “F (>25-50% remaining)” and the EC50 lay in the range of 10 to 100 nM.
`O=C1CCC(N2Cc3cc(-c4coc(-c5ccccc5)n4)ccc3C2=O)C(=O)N1` (stereo not drawn) [Example 37, 3-(1-Oxo-5-(2-phenyloxazol-4-yl)isoindolin-2-yl)piperidine-2,6-dione]: on GSPT1 (six hours incubation), the DC50 is at least 25 nM and the “GSPT1 Ymin” value is “F (F = >75-100% remaining)”. At CK1α (six hours incubation), the “CK1α Ymin” value was “D (D = >10- 25% remaining)” and the DC50 is below 25 nM. In addition, in the test on Z-138 cells, the “Ymin (%)” value was “F (>25-50% remaining)” and the EC50 was 10 to 100 nM.
With `Cn1c(C(F)(F)F)nc(-c2ccc3c(c2)CN(C2CCC(=O)NC2=O)C3=O)c1-c1ccccc1` (stereo not drawn) [Example 52, 3-(5-(1-Methyl-5-phenyl-2-(trifluoromethyl)-1H-imidazol-4-yl)-1-oxoisoindolin-2-yl)piperidine-2,6-dione], on GSPT1 (six hours incubation), the 50% degradation concentration (DC50) is below 25 nM and the “GSPT1 Ymin” value was “F (F = >75-100% remaining)”. On CK1α (six hours incubation), the “CK1α Ymin” value is “C (C = 0-10% remaining)” and the DC50 is below 25 nM. Moreover, in the test on Z-138 cells, the “Ymin (%)” value is given as “D (0-10% remaining)” and the EC50 is below 10 nM.
`O=C1CCC(N2Cc3cc(-c4cn(-c5ccccc5)cn4)ccc3C2=O)C(=O)N1` (stereo not drawn) [Example 32, 3-(1-Oxo-5-(1-phenyl-1H-imidazol-4-yl)isoindolin-2-yl)piperidine-2,6-dione]: at GSPT1 (six hours incubation), the half-maximal degradation concentration (DC50) is below 25 nM and the “GSPT1 Ymin” value is “E (E = >25-75% remaining)”. In addition, on CK1α (six hours incubation), the “CK1α Ymin” value is “D (D = >10- 25% remaining)” and the DC50 is below 25 nM. Further, in the test with Z-138 cells, the “Ymin (%)” value was “D (0-10% remaining)” and the EC50 was below 10 nM.
On to `COc1ccc(-c2c(-c3ccc4c(c3)CN(C3CCC(=O)NC3=O)C4=O)cnn2C)c(F)c1` (stereo not drawn) [Example 64], for which, at GSPT1 (six hours incubation), the DC50 is at least 25 nM and the “GSPT1 Ymin” value is “F (F = >75-100% remaining)”. Further, at CK1α (six hours incubation), the “CK1α Ymin” value is given as “C (C = 0-10% remaining)” and the DC50 was below 25 nM. In the test on Z-138 cells, the “Ymin (%)” value is on record as “E (>10-25% remaining)” and the EC50 is below 10 nM.
For `O=C1CCC(N2Cc3cc(-c4ncn5c4-c4ccccc4C5)ccc3C2=O)C(=O)N1` (stereo not drawn) [Example 339, 3-(5-(5H-imidazo[5,1-a]isoindol-1-yl)-1-oxoisoindolin-2-yl)piperidine-2,6-dione], at GSPT1 (six hours incubation), the DC50 is below 25 nM and the “GSPT1 Ymin” value is reported as “F (F = >75-100% remaining)”. Also, at CK1α (six hours incubation), the “CK1α Ymin” value is “C (C = 0-10% remaining)” and the DC50 was below 25 nM. Also, in the test with Z-138 cells, the “Ymin (%)” value is reported as “D (0-10% remaining)” and the half-maximal effective concentration (EC50) was in the range of 10 to 100 nM.
Regarding `Cn1nc(-c2ccc3c(c2)CN(C2CCC(=O)NC2=O)C3=O)nc1-c1ccccc1` (stereo not drawn) [Example 519, 3-[5-(1-methyl-5-phenyl-1,2,4-triazol-3-yl)-1-oxo-isoindolin-2-yl]piperidine-2,6-dione], at GSPT1 (six hours), the DC50 is at least 25 nM and the “GSPT1 Ymin” value is recorded as “F (F = >75-100% remaining)”. Besides, on CK1α (six hours), the “CK1α Ymin” value is recorded as “C (C = 0-10% remaining)” and the half-maximal degradation concentration (DC50) is below 25 nM. In addition, in the test with Z-138 cells, the “Ymin (%)” value is “E (>10-25% remaining)” and the 50% effective concentration (EC50) was in the range of 10 to 100 nM.
For `Cn1nc(-c2ccc3c(c2)CN(C2CCC(=O)NC2=O)C3=O)nc1-c1ccc(C(F)(F)F)cc1` (stereo not drawn) [Example 619, 3-(5-(1-methyl-5-(4-(trifluoromethyl)phenyl)-1H-1,2,4-triazol-3-yl)-1-oxoisoindolin-2-yl)piperidine-2,6-dione], at GSPT1 (six hours), the DC50 was at least 25 nM and the “GSPT1 Ymin” value is “F (F = >75-100% remaining)”. For the same compound, at CK1α (six hours), the “CK1α Ymin” value is recorded as “E (E = >25-75% remaining)” and the DC50 was below 25 nM. Besides, in the test on Z-138 cells, the “Ymin (%)” value was “F (>25-50% remaining)” and the EC50 lay in the range of 10 to 100 nM.
Regarding `CC(C)n1nc(-c2ccc3c(c2)CN(C2CCC(=O)NC2=O)C3=O)nc1-c1ccccc1` (stereo not drawn) [Example 553, 3-(5-(1-isopropyl-5-phenyl-1H-1,2,4-triazol-3-yl)-1-oxoisoindolin-2-yl)piperidine-2,6-dione], on GSPT1 (six hours), the DC50 is at least 25 nM and the “GSPT1 Ymin” value was “F (F = >75-100% remaining)”. Also, on CK1α (six hours), the “CK1α Ymin” value is given as “C (C = 0-10% remaining)” and the 50% degradation concentration (DC50) was below 25 nM. In the test with Z-138 cells, the “Ymin (%)” value is recorded as “D (0-10% remaining)” and the EC50 was 10 to 100 nM.
Regarding `Cc1c(-c2ccc3c(c2)CN(C2CCC(=O)NC2=O)C3=O)nc(C2CCOCC2)n1C` (stereo not drawn) [Example 615, 3-(5-(1,5-dimethyl-2-(tetrahydro-2H-pyran-4-yl)-1H-imidazol-4-yl)-1-oxoisoindolin-2-yl)piperidine-2,6-dione], on GSPT1 (six hours), the DC50 was below 25 nM and the “GSPT1 Ymin” value was “F (F = >75-100% remaining)”. On CK1α (six hours), the “CK1α Ymin” value was “C (C = 0-10% remaining)” and the DC50 is below 25 nM. In the test on Z-138 cells, the “Ymin (%)” value is “E (>10-25% remaining)” and the EC50 is 10 to 100 nM.
In the case of `Cn1cc(-c2ccccc2)nc1-c1ccc2c(c1)CN(C1CCC(=O)NC1=O)C2=O` (stereo not drawn) [Example 41, 3-(5-(1-Methyl-4-phenyl-1H-imidazol-2-yl)-1-oxoisoindolin-2-yl)piperidine-2,6-dione], at GSPT1 (six hours incubation), the DC50 was at least 25 nM and the “GSPT1 Ymin” value was “F (F = >75-100% remaining)”. Further, on CK1α (six hours incubation), the “CK1α Ymin” value is reported as “D (D = >10- 25% remaining)” and the DC50 was below 25 nM. In the test with Z-138 cells, the “Ymin (%)” value is “D (0-10% remaining)” and the EC50 lay in the range of 10 to 100 nM.
Turning to `Cc1nc(-c2ccc3c(c2)CN(C2CCC(=O)NC2=O)C3=O)c(-c2ccccc2)o1` (stereo not drawn) [Example 19, 3-(5-(2-Methyl-5-phenyloxazol-4-yl)-1-oxoisoindolin-2-yl)piperidine-2,6-dione], at GSPT1 (six hours incubation), the DC50 was at least 25 nM and the “GSPT1 Ymin” value is “E (E = >25-75% remaining)”. Further, on CK1α (six hours incubation), the “CK1α Ymin” value is recorded as “C (C = 0-10% remaining)” and the DC50 is below 25 nM. In addition, in the test on Z-138 cells, the “Ymin (%)” value was “D (0-10% remaining)” and the EC50 is below 10 nM.
Consider `Cn1cc(-c2c(-c3ccc4c(c3)CN(C3CCC(=O)NC3=O)C4=O)ncn2C)cn1` (stereo not drawn) [Example 319], for which, at GSPT1 (six hours incubation), the DC50 was at least 25 nM and the “GSPT1 Ymin” value is on record as “E (E = >25-75% remaining)”. Besides, on CK1α (six hours incubation), the “CK1α Ymin” value was “C (C = 0-10% remaining)” and the DC50 is below 25 nM. For the same compound, in the test on Z-138 cells, the “Ymin (%)” value was “D (0-10% remaining)” and the EC50 lay within 10 to 100 nM.
